The numbers were not newly measured in patent publication US9517268B2, “Process for producing inorganic particulate material” (MERCK PATENT GMBH, priority 2011, dated 2016), which cites them from elsewhere.

The conditions of this series: pH 7.

In brackets after ≈: the same amount, converted by molar mass.

For `CCC(C)n1ncn(-c2ccc(N3CCN(c4ccc(OCC5COC(Cn6cncn6)(c6ccc(Cl)cc6Cl)O5)cc4)CC3)cc2)c1=O` (stereo not shown) [Itraconazole], the “solubility in aqueous solutions” value is 1 ng/mL (≈ 1.42 nM).
